Assay [1] deals with T1, Sander vitreus (blue walleye) Sandercyanin fluorescent protein (SFP), wild type, SEQ ID NO:1 (recombinant without signal peptide SEQ ID NO:31) (Sander vitreus, UniProt A0A1D5B367).
T1 construct: apo monomer, tetramer with biliverdin
T1 sequence (A0A1D5B367 1-170): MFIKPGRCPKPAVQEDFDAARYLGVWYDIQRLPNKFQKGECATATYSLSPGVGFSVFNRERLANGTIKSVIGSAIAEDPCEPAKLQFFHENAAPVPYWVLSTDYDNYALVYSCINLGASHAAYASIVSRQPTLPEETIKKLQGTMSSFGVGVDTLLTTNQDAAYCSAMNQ
Nature of the assay: Binding of biliverdin to (apo) Sandercyanin by fluorescence titration. The procedure: FIGS. 11C-11D (C) Titration of apo-SFP (20 uM) with BV IXα measured at 675 nm with λex=375 nm (green) and 630 nm (red). (D) Photo-bleaching kinetics of Sandercyanin and free-biliverdin (BV).
Addition of the biliverdin to apo-protein results in red-shift in the fluorescence of Sandercyanin to near infra-red (NIR) region. Molar extinction coefficient of holoSFP measured in phosphate buffer of pH 7.4 at 375 nm and 630 nm are 21,000 M^−1 cm^−1 and 13,500 M^−1 cm^−1 respectively and quantum yield is determined to be 0.016. Further, fluorescence spectra is widely spread into the infrared region with minimal overlap with the excitation spectra. We examined the affinity of apoSFP towards BV using fluorescence and determined Kd of 6 μM.
Native SFP was extracted and purified from the mucus of Blue Walleye from Northwest Ontario by various chromatographic methods as described previously (Chi Li et al). A putative amino acid sequence of SFP was determined from crystal structure of the native protein, confirmed and corrected after whole genome sequencing of Blue Walleye. […]
All experiments were performed with purified SFP samples (apo and holo forms) at pH 7.5 and room temperature. UV-Visible absorbance spectra of native and recombinant SFP were recorded from 800 to 200 nm with ultraspec 2100 pro spectrophotometer from Amersham Biosciences. CD spectra were measured on JASCO J-815 Spectropolarimeter. […]

For assay [2], the target named is Sander vitreus Sandercyanin fluorescent protein (SFP) variant SFP-A137E, SEQ ID NO:4 (Sander vitreus, UniProt A0A1D5B367, A118E). Nature of the assay: Biliverdin binding of monomeric SFP variant. On the procedure: (§1) All experiments were performed with purified SFP samples (apo and holo forms) at pH 7.5 and room temperature. UV-Visible absorbance spectra of native and recombinant SFP were recorded from 800 to 200 nm with ultraspec 2100 pro spectrophotometer from Amersham Biosciences. CD spectra were measured on JASCO J-815 Spectropolarimeter. Steady state fluorescence, excitation, binding and photobleaching studies were monitored on Horiba Jobin Yvon Fluoromax-4 fluorimeter. Data analysis were done using Origin6 and Origin8 software. Hydrogen was exchanged with Deuterium by increasing concentrations of D2O to a standard protein concentration. Deuteriated proteins were prepared in the same buffer, incubated for 15 minutes, and monitored for spectral properties.
Chain of Sander vitreus Sandercyanin fluorescent protein (SFP) variant SFP-A137E, SEQ ID NO:4 (A0A1D5B367 entry or part of it A118E): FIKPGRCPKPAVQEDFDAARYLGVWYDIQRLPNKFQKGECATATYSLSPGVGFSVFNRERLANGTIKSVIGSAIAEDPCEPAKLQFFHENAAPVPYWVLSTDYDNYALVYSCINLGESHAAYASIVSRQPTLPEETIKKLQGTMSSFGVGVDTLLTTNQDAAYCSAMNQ
(§2) All SFP variants were expressed using E. coli BL21*(DE3) cells. Briefly, each of the SFP monomer mutant genes in pET21a vector were transformed into BL21*(DE3) cells and selected on a LB agar plate containing ampicillin (100 μg/mL). For large scale expression, about 5 mL of the overnight grown primary culture was inoculated into 500 mL of LB medium containing 100 μg/mL ampicillin. Cells were grown at 37° C. until OD600 nm reached to 0.6-0.7. Then, cells were induced using 0.2 mM isopropyl-thiogalactoside (IPTG). Post-induction cells were grown at 20° C. for 20 hours. Thereafter, cells were harvested by centrifugation at 6000 rpm for 10 minutes. Bacterial cell pellet containing SFP as insoluble protein was resuspended in a lysis buffer (20 mM Tris-HCl, pH 7.5, 10 mM EDTA and 1% TritonX). […] Thus, refolded purified SFP was checked using an analytical gel filtration column for oligomerization state and biliverdin (BV) binding by UV-visible absorbance and fluorescence spectroscopy (FIGS. 1A-1D).
(§3) Characterization of monoSFP Variants—MonoSFP variants were characterized by size-exclusion chromatography during purification of the proteins. […] They have far-red to near infra-red fluorescence with large Stokes shift. […] To test this, we performed detergent (Triton X-100) assays with the monoSFPs and measured absorbance and fluorescence spectra. […]

Assay [3] deals with Sander vitreus Sandercyanin fluorescent protein (SFP) variant SFP-L135E (mSFP2), SEQ ID NO:3 (Sander vitreus, UniProt A0A1D5B367, L116E). Nature of the assay: Biliverdin binding of monomeric SFP variant. On the procedure: as §1, §2, §3
Chain of Sander vitreus Sandercyanin fluorescent protein (SFP) variant SFP-L135E (mSFP2), SEQ ID NO:3 (A0A1D5B367 entry or part of it L116E): as the sequence (A0A1D5B367 entry or part of it A118E) above, with L115E, E117A counted along it
For assay [4], the target named is Sander vitreus Sandercyanin fluorescent protein (SFP) variant SFP-V71E (mSFP1), SEQ ID NO:2 (Sander vitreus, UniProt A0A1D5B367, V52E). The experiment in a line: Biliverdin binding of monomeric SFP variant. On the procedure: as §1, §2, §3
Chain of Sander vitreus Sandercyanin fluorescent protein (SFP) variant SFP-V71E (mSFP1), SEQ ID NO:2 (A0A1D5B367 entry or part of it V52E): as the sequence (A0A1D5B367 entry or part of it A118E) above, with V51E, E117A counted along it
The target of assay [5] is T2, Sander vitreus Sandercyanin fluorescent protein (SFP) variant, Phe 55 to alanine (Sander vitreus, UniProt A0A1D5B367, F36A).
T2 construct: preparation not described for this mutant
T2 sequence (A0A1D5B367 entry or part of it F36A): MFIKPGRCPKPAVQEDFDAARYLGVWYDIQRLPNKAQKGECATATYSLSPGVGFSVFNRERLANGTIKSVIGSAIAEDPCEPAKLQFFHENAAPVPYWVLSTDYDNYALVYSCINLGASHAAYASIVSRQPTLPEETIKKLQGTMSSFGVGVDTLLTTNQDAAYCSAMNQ
The experiment in a line: Biliverdin binding of SFP mutant. As to conditions: Phe 55 to alanine mutation.

As to `C=CC1=C(C)/C(=C/C2=NC(=C\c3[nH]c(/C=C4\NC(=O)C(C)=C4C=C)c(C)c3CCC(=O)O)/C(CCC(=O)O)=C2C)NC1=O` [BV, Biliverdin IXα], the Kd was 5 to 6 µM in assay [1] (Table 4, wild-type SFP (tetramer)); 6 µM in assay [1] (affinity of apoSFP towards BV using fluorescence, pH 7.5, room temperature); 3 to 5 µM in assay [2]; 4 to 12 µM in assay [3]; 4 to 6 µM in assay [4]. The BV binding result in assay [5] is listed as “abolished BV binding”.

The values are drawn from patent US10962528B2, “Blue fluorescent protein monomers and uses thereof” (WISYS TECHNOLOGY FOUNDATION, INC., priority 2015, dated 2021).
